# Columns and labels:
# [1] = target: Tyrosine-protein kinase Lck (Homo sapiens, UniProt P06239); experiment: Inhibition of p56 Lck tyrosine kinase
# [2] = Inhibition of p56 Lck tyrosine kinase
# Sequence of Tyrosine-protein kinase Lck (P06239 whole entry): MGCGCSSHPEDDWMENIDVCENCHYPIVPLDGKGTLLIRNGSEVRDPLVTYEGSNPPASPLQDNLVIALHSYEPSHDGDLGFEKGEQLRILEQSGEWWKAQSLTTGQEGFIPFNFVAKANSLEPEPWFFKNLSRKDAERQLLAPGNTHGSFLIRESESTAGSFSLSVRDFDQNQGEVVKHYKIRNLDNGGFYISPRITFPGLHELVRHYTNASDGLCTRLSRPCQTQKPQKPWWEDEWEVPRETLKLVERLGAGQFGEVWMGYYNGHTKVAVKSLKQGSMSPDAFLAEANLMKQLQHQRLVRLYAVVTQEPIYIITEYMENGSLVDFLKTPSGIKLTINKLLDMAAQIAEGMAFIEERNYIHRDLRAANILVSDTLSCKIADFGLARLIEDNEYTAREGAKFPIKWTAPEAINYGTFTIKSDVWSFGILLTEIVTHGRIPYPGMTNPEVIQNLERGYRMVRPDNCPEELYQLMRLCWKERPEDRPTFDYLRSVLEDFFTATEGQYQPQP
Structure (SMILES),IC50 [1] [µM],IC50 [2] [µM]
COc1c(Br)cc(/C=C(\C#N)c2cccnc2)cc1Br,> 2530,–
COc1cc(/C=C/c2cccnc2)cc(OC)c1OC,–,516
COc1cc(/C=C/c2ccccn2)cc(OC)c1OC,–,2180
COc1cc(/C=C(\C#N)c2cccnc2)cc(Br)c1O,242,–

# Further lines, results first:
IC50 [1] [µM],IC50 [2] [µM],Structure (SMILES)
> 2530,–,COc1c(Br)cc(/C=C(\C#N)c2ccccn2)cc1Br
105,–,N#C/C(=C\c1cc(Br)c(O)c(Br)c1)c1ccccn1
> 2090,–,N#CC(Cc1cc(Br)c(O)c(Br)c1)c1ccccn1 (stereo not drawn)
168,–,N#C/C(=C\c1cc(Br)c(O)c(Br)c1)c1cccnc1

# — ChEMBL document CHEMBL1127934, “Synthesis of a series of brominated 1-phenyl-2-pyridylethenes as inhibitors of the protein-tyrosine kinase p56lck” (Bioorg Med Chem Lett, 1994)
